Values quoted from earlier work, collected in paper PMC5863612 (Chemical Science, 2017).

System: βPGM
Conditions: for Km: previously recorded result

## O=P(O)(O)O[C@@H]1O[C@H](CO)[C@@H](O)[C@H](O)[C@H]1O [βG1P, β-D-glucose 1-phosphate]
  Km: 14.7 µM

## O=P(O)(O)OC[C@H]1O[C@@H](OP(=O)(O)O)[C@H](O)[C@@H](O)[C@@H]1O [βG16BP, β-glucose-1,6-bisphosphate]
  Km: 0.72 ± 0.04 µM

## fluorine
  Inhibition of βPGM (reported range): low millimolar range
